These results are taken from paper PMC10380083, “Synthesis of Prostate-Specific Membrane Antigen-Targeted Bimodal Conjugates of Cytotoxic Agents and Antiandrogens and Their Comparative Assessment with Monoconjugates” (International Journal of Molecular Sciences, 2023).

The test system of one series is LNCaP cells. In words: In vitro cytotoxicity, MTS assay, LNCaP. Format: cell-based. Particulars: 72 h, high PSMA expression, range 0.5 to 800 nM, triplicates. The protocol:
(§1) The resulting bimodal conjugates were tested in vitro on three different PCa cell lines. We used LNCaP cells with high PSMA expression, 22Rv1 cells with moderate PSMA expression and PC-3 cells with extremely low PSMA expression. Different levels of PSMA expression in 22Rv1 and LNCaP cell lines allows evaluation of the effect of the level of expression on the toxicity of the target drugs. PSMA-negative cell line PC-3 allows a qualitative assessment of non-specific toxicity of the obtained compounds.
(§2) The cytotoxicity of the investigated substances was tested using the MTS assay with some modifications. Cells were seeded in the 96-well plates (Corning, New York, NY, USA) at concentration of 7000 cells per well for PC-3 culture, 12,000 cells per well for LNCaP cells and 20,000 cells per well for 22Rv1 line. The cells were counted using the automatic cell counter EVE. All cell lines were purchased from the American Type Culture Collection (ATCC, Manassas, VA, USA). After 1 day, serial dilutions of tested substances were added to the cells. Cell culture medium with addition of DMSO in appropriate concentrations was used as a negative control. DMSO (30%) was added in culture medium as a positive control. Cells were then incubated during 72 h at 37 °C and 5% CO2. Later, the culture medium from each well was removed and 20 μL of MTS reagent (CellTiter 96 AQueous Non-Radioactive Cell Proliferation Assay, Promega) were added to each well with 100 μL of new culture medium. After 4 h incubation at 37 °C in darkness, the absorbance of the solution was measured at 490 nm wavelength using Thermo Scientific Multiskan GO spectrometer. Cell viability was calculated as a percentage compared to control cells. The absorbance of MTS reagent in culture medium without cells was taken as zero. […] Experiments were performed in triplicates. Data were analyzed using Prism 9—GraphPad version 9.2.0 software. p values < 0.05 were considered significant.
On the technique in general: Formazan colour is commonly taken as a measure of viable cells.

The next series relates to 22Rv1 cells. In words: In vitro cytotoxicity, MTS assay, 22Rv1. Format: cell-based, human. Particulars: 72 h, moderate PSMA expression, range 0.5 to 800 nM, triplicates. The protocol: as §1, §2
Another series deals with PC-3 cells. Description: In vitro cytotoxicity, MTS assay, PC-3. The series is classed as cell-based, human. Particulars: 72 h, extremely low PSMA expression, range 0.5 to 800 nM, triplicates. The protocol: as §1, §2

*1 amine or outer side, *2 acyl side, *3 side chain or, on linkers, in order; H or OH if unused. Where a SMILES comes first, the peptide text is derived from it. [ ]: non-standard residue; d: D form. The star is where a group is joined. GluureaLys(ε-3-ClBenzyl) = O=C(O)CC[C@H](NC(=O)N[C@@H](CCCCN(Cc1cccc(Cl)c1)*)C(=O)O)C(=O)O; Dolaproine = CO[C@@H]([C@@H]1CCCN1)[C@@H](C)C(=O)O; Dil = CC[C@H](C)[C@H](NC)[C@@H](CC(=O)O)OC; X2 = O=C(CCCc1cn(CCCN[*:1])nn1)[*:2]; PABC = O=C(OCc1ccc(N[*:1])cc1)[*:2]; X1 = C[C@@H](N*)[C@@H](O)c1ccccc1; Cit = NC(=O)NCCC[C@H](N)C(=O)O; Suc = O=C(CCC(=O)[*:2])[*:1]; NMeV = CN[C@H](C(=O)O)C(C)C; Ahx = NCCCCCC(=O)O

On to `CC[C@H](C)[C@@H]([C@@H](CC(=O)N1CCC[C@H]1[C@H](OC)[C@@H](C)C(=O)N[C@H](C)[C@@H](O)c1ccccc1)OC)N(C)C(=O)[C@@H](NC(=O)[C@H](C(C)C)N(C)C(=O)OCc1ccc(NC(=O)[C@H](CCCNC(N)=O)NC(=O)[C@@H](NC(=O)CCCc2cn(CCCNC(=O)[C@H](Cc3ccc(O)cc3)NC(=O)[C@H](Cc3ccccc3)NC(=O)CCC(=O)NCCCCCC(=O)N(CCCC[C@H](NC(=O)N[C@@H](CCC(=O)O)C(=O)O)C(=O)O)Cc3cccc(Cl)c3)nn2)C(C)C)cc1)C(C)C` [I, reference compound] ({GluureaLys(ε-3-ClBenzyl)-Ahx-Suc}-FY[X2]V[Cit][PABC][NMeV]V[Dil][Dolaproine]-X1), for which the “CC50, LNCaP” value in the series on LNCaP cells stood at 0.0777 ± 0.0013 µM. The “CC50, 22Rv1” value in the series with 22Rv1 cells came out at 0.0785 ± 0.0008 µM. In addition, the “CC50, PC-3” value in the series on PC-3 cells was more than 0.8 µM.
On the same counts, the results for `CC[C@H](C)[C@@H]([C@@H](CC(=O)N1CCC[C@H]1[C@H](OC)[C@@H](C)C(=O)N[C@H](C)[C@@H](O)c1ccccc1)OC)N(C)C(=O)[C@@H](NC(=O)[C@@H](NC)C(C)C)C(C)C` [MMAE, Monomethyl Auristatin E, reference compound] (H-[NMeV]V[Dil][Dolaproine]-X1) are 0.00069 ± 0.0001 µM, 0.00042 ± 0.0002 µM and more than 0.8 µM.
